For 21 compounds, Ki results are on record in US12384772B2, “Inhibitors” (VIVORYON THERAPEUTICS N.V., priority 2017, dated 2025).

SMILES strings stand for the structures. Where two headings read alike, the source gives them in different places.

For the test, the target named is Glutaminyl cyclase (QC) (Homo sapiens (Human), UniProt Q16769). As to the kind of experiment: Glutaminyl cyclase assay, determination of IC50 values and calculation of Ki values (H-Gln-AMC substrate, pGAP auxiliary enzyme; pH 8.0 or pH 6.0). The class given is biochemical. As for the experimental part:
10 mM compound stock solutions were prepared in DMSO. For IC50 determination compound stocks were serially diluted (1:3) in DMSO.
All measurements were performed with an EnSpire Perkin Elmer multimode reader using glutaminyl-7-amino-4-methylcoumarin (H-Gin-AMC) as substrate and recombinant pyroglutamyl aminopeptidase (pGAP) as auxiliary enzyme. Reactions were carried out at ambient temperature in black 96-well half area microplates. Each sample consisted of 1 μl test compound solution or solvent (DMSO) and 49 μl QC appropriately diluted in assay buffer (50 mM Tris/HCl, pH 8.0 or 50 mM MES buffer, pH=6.0). After a 10 min preincubation at ambient temperature the enzyme reaction was started by adding 50 μl of Gln-AMC-substrate/pGAP mixture in assay buffer. Final substrate concentrations were 50 and 200 μM for measurement at pH 8.0 or 6.0, respectively. Release of flourogenic AMC were recorded at excitation/emission wavelengths of 380/460 nm. Initial velocity of the enzyme reaction was calculated by linear regression of the first 10 data points using the Enspire Manager software. Final evaluation and calculation of IC50s were performed using GraphPad Prism software.
Ki-values were calculated according to the following formula: Ki=IC50/(1+[S]/Km), where: […]

Where [1] appears, read: pH 6, read-out: hQC Ki [μM] pH6.
Where [2] appears, read: pH 8, read-out: hQC Ki [μM] pH8.

Glutaminyl cyclase (QC), sequence (Q16769 29-361): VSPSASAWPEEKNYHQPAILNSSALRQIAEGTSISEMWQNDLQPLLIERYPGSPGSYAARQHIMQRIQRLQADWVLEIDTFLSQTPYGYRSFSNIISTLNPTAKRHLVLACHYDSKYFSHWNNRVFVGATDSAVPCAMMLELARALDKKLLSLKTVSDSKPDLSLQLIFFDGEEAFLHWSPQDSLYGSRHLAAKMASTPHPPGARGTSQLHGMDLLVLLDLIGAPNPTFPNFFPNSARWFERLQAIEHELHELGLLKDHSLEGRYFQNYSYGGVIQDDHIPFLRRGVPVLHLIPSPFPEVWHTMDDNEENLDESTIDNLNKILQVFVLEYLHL

As a reminder, the Ki is the equilibrium dissociation constant of an inhibitor or competing ligand from its target. For the compound `Nc1nnc(C2CCN(S(=O)(=O)c3ccc(F)cc3)CC2)s1` [M2, 5-[1-(4-fluorobenzenesulfonyl)piperidin-4-yl]-1,3,4-thiadiazol-2-amine], the Ki runs as follows: under setting [1], 1.18 µM; under setting [2], 1.6 µM.

Regarding `Cn1cnnc1C1CCN(S(=O)(=O)c2ccc(F)cc2)CC1` [N1, 1-(4-fluorobenzenesulfonyl)-4-(4-methyl-4H-1,2,4-triazol-3-yl)piperidine], the Ki by setting is: under setting [1], 3.05 µM; under setting [2], 3.3 µM.

For `COc1ccc(-c2ccccc2NCc2ccc3[nH]cnc3c2)cc1` [O3, N-(1H-1,3-benzodiazol-5-ylmethyl)-2-(4-methoxyphenyl)aniline], the Ki is 1.44 µM under setting [1] and 1.65 µM under setting [2].

As for `COc1ccc(-c2ncccc2NCc2ccc3[nH]cnc3c2)cc1` [O4, N-(1H-1,3-benzodiazol-5-ylmethyl)-2-(4-methoxyphenyl)pyridin-3-amine], the Ki is, setting by setting: under setting [1], 9.52 µM; under setting [2], 2.96 µM.

On to `COc1ccc(-c2cccnc2NCc2ccc3[nH]cnc3c2)cc1` [O5, N-(1H-1,3-benzodiazol-5-ylmethyl)-3-(4-methoxyphenyl)pyridin-2-amine], for which the Ki runs as follows: under setting [1], 2.74 µM; under setting [2], 2.41 µM.

For the compound `COc1ccc(-c2cnccc2NCc2ccc3[nH]cnc3c2)cc1` [O6, N-(1H-1,3-benzodiazol-5-ylmethyl)-3-(4-methoxyphenyl)pyridin-4-amine], the inhibition constant Ki reads like this: under setting [1], 15.1 µM; under setting [2], 10.8 µM.

In the case of `COc1ccc(-c2ccncc2NCc2ccc3[nH]cnc3c2)cc1` [O7, N-(1H-1,3-benzodiazol-5-ylmethyl)-4-(4-methoxyphenyl)pyridin-3-amine], the Ki is 11.1 µM under setting [1] and 4.24 µM under setting [2].

For the compound `COc1ccc(-c2cncnc2NCc2ccc3[nH]cnc3c2)cc1` [O8, N-(1H-1,3-benzodiazol-5-ylmethyl)-5-(4-methoxyphenyl)pyrimidin-4-amine], the Ki under setting [2] was 18.3 µM.

As for `COc1ccc(-c2nccnc2NCc2ccc3[nH]cnc3c2)cc1` [O9, N-(1H-1,3-benzodiazol-5-ylmethyl)-3-(4-methoxyphenyl)pyrazin-2-amine], the inhibition constant (Ki) by setting is: under setting [1], 1.9 µM; under setting [2], 2.21 µM.

Take `COc1ccc(-c2cnccc2NCc2ccc3[nH]cnc3c2)cc1OC` [O10, N-(1H-1,3-benzodiazol-5-ylmethyl)-3-(3,4-dimethoxyphenyl)pyridin-4-amine]: the Ki reads like this: under setting [1], 1.63 µM; under setting [2], 0.88 µM.

For the compound `COc1ccc(-c2nccnc2NCc2ccc3[nH]cnc3c2)cc1OC` [O12, N-(1H-1,3-benzodiazol-5-ylmethyl)-3-(3,4-dimethoxyphenyl)pyrazin-2-amine], the Ki under setting [1] was 0.13 µM and the Ki under setting [2] was 0.42 µM.

For `Fc1ccc(-c2nccnc2NCc2ccc3[nH]cnc3c2)cc1` [O15, N-(1H-1,3-benzodiazol-5-ylmethyl)-3-(4-fluorophenyl)pyrazin-2-amine], the Ki by setting is: under setting [1], 10.5 µM; under setting [2], 11.7 µM.

For the compound `c1ccc(Oc2ccc(-c3ccccc3NCc3ccc4[nH]cnc4c3)cc2)cc1` [O16, N-(1H-1,3-benzodiazol-5-ylmethyl)-2-(4-phenoxyphenyl)aniline], the Ki runs as follows: under setting [1], 4.34 µM; under setting [2], 2.11 µM.

For `c1ccc(-c2ccc(OC3CCCCC3)cc2)c(NCc2ccc3[nH]cnc3c2)c1` [O17, N-(1H-1,3-benzodiazol-5-ylmethyl)-2-[4-(cyclohexyloxy)phenyl]aniline], the Ki by setting is: under setting [1], 2.03 µM; under setting [2], 4.17 µM.

In the case of `CC(C)Oc1ccc(-c2ccccc2NCc2ccc3[nH]cnc3c2)cc1` [O19, N-(1H-1,3-benzodiazol-5-ylmethyl)-2-[4-(propan-2-yloxy)phenyl]aniline], the inhibitory constant (Ki) by setting is: under setting [1], 1.53 µM; under setting [2], 3.39 µM.

Regarding `COc1ccc(-c2c(C)cccc2NCc2ccc3[nH]cnc3c2)cc1` [O20, N-(1H-1,3-benzodiazol-5-ylmethyl)-2-(4-methoxyphenyl)-3-methylaniline], the Ki is 2.38 µM under setting [1] and 1.64 µM under setting [2].

Take `COc1ccc(-c2c(C)cccc2NCc2ccc3[nH]cnc3c2)cc1OC` [O21, N-(1H-1,3-benzodiazol-5-ylmethyl)-2-(3,4-dimethoxyphenyl)-3-methylaniline]: the Ki was 0.43 µM under setting [1] and 0.42 µM under setting [2].

With `Fc1cccc(NCc2ccc3[nH]cnc3c2)c1-c1ccc(Cl)cc1` [O22, N-(1H-1,3-benzodiazol-5-ylmethyl)-2-(4-chlorophenyl)-3-fluoroaniline], the Ki under setting [1] was 4.89 µM and the Ki under setting [2] is 6.83 µM.

`COc1ccc(-c2c(F)cccc2NCc2ccc3[nH]cnc3c2)cc1OC` [O23, N-(1H-1,3-benzodiazol-5-ylmethyl)-2-(3,4-dimethoxyphenyl)-3-fluoroaniline]: the Ki runs as follows: under setting [1], 0.055 µM; under setting [2], 0.1 µM.

As for `Fc1ccc(-c2c(F)cccc2NCc2ccc3[nH]cnc3c2)cc1` [O24, N-(1H-1,3-benzodiazol-5-ylmethyl)-3-fluoro-2-(4-fluorophenyl)aniline], the Ki runs as follows: under setting [1], 5.81 µM; under setting [2], 9.41 µM.

In the case of `O=S(=O)(NCc1ccc2[nH]cnc2c1)c1ccc(F)cc1` [P1, N-[(1H-1,3-benzodiazol-5-yl)methyl]-4-fluorobenzene-1-sulfonamide], the inhibitory constant (Ki) is 38.3 µM under setting [1] and 24.7 µM under setting [2].
